Values joined by “and” are separate entries in the source; they are usually repeats but may differ in a detail not shown here. Equal entries are not always repeated. Where two headings read alike, the source gives them in different places.

The values below come from patent publication US11850306B2, “Method for drying hydrogel comprising nanofibrillar cellulose and a dried hydrogel comprising nanofibrillar cellulose” (UPM-KYMMENE CORPORATION, priority 2016, dated 2023).

A short description of series [1]: In vitro release studies: diffusion coefficients of model compounds from NFC hydrogels. Format: physicochemical. The settings on record: for Diffusion coefficient in NFC-hydrogels: pH 7.4, 37° C. On the procedure:
In vitro drug release studies were performed with modified intrinsic dissolution disc dies filled with 1.07 g of formulations with a constant flat surface area of 1.33 cm^2. Discs were placed in 150 ml amber glass vessels on top of a holder. The vessels were filled to a final volume of 70 ml with pH 7.4 phosphate buffered saline (1×DPBS) and kept at 37° C. under constant magnetic stirring (400 rpm) on top of a multi-position magnetic stirrer IKA RT10 (IKA-Werke GmbH & Co KG, Germany). […] All experiments were done in triplicate.
The flow rate was 0.5 ml/min and the injection volume 5 μl. […] During the gradient run the mobile phase consisted of a mixture of acetonitrile and 15 mM phosphate buffer pH 2 in 25:75 ratio at 0-3 min. After 3 min the mobile phase composition was changed to 75:25 ratio. […] For nadolol, the used column was HSS-T3 1.8 μm (2.1×50 mm) (Waters, USA) at 30° C. The flow rate was 0.5 ml/min and the injection volume 5 μl. […] During the gradient run the mobile phase consisted of a mixture of acetonitrile and 15 mM phosphate buffer pH 2 in 10:90 ratio at 0-3 min. After 3 min the mobile phase composition was changed to 50:50 ratio.
200 μl of samples were pipetted into wells of 96-well OptiPlate plates (PerkinElmer, Finland). Excitation wavelength 490 nm, emission wavelength 520 nm and 12 nm bandwidth were used.
For metronidazole, absorbance was measured in 1 cm cell at 320 nm with 12 nm bandwidth against blank.
Sample and reagent were mixed thoroughly with a multi-channel pipet and incubated for 20 minutes at room temperature before absorbance measurement.
Mathematical equations were used for the modelling of diffusion controlled drug release that take into consideration structure of the device, the ratio of initial drug concentration to drug solubility and the device geometry. The diffusion coefficients were calculated by Higuchi equation (1) for small molecules with a presumption that these systems could be described as monolithic dispersions (Equations 1 and 2 below). For large molecules (1 kDa) equations we used to solve Fick's second law of diffusion and diffusion coefficients (2) with a presumption that these systems could be described as monolithic solutions (FIG. 2).
In vitro drug release studies were performed with modified intrinsic dissolution disc dies filled with 1.07 g of formulations with a constant flat surface area of 1.33 cm2. Discs were placed in 150 ml amber glass vessels on top of a holder. The vessels were filled to a final volume of 70 ml with pH 7.4 phosphate buffered saline (1×DPBS) and kept at 37° C. under constant magnetic stirring (400 rpm) on top of a multi-position magnetic stirrer IKA RT10 (IKA-Werke GmbH & Co KG, Germany). […] All experiments were done in triplicate.

The conditions of series [2]: cited from earlier work.
The conditions of series [3]: nitrogen; cited from earlier work.
For series [4] the following is noted: cited from earlier work; for Solubility in aqueous media (intrinsic solubility): 25° C.
The mark [5] stands for this setting: 3% NFC/exp (PEG6000 and trehalose), before freeze drying.
The mark [6] stands for this setting: 6.5% NFC/exp (PEG6000 and trehalose), before freeze drying.
[7] abbreviates: FD 3% NFC/exp, freeze dried and redispersed.
The mark [8] stands for this setting: FD 6.5% NFC/exp, freeze dried and redispersed.

For the molecule `CC(C(=O)O)c1cccc(C(=O)c2ccccc2)c1` (stereo not drawn) [Ketoprofen], the “Diffusion coefficients for model compounds in different NFC hydrogels” value in series [1] (3% NFC, no excipients) is 152.62 10^−8 cm^2/s; in series [1] (setting [5]) it was 147.15 10^−8 cm^2/s; in series [1] (6.5% NFC, no excipients), 141.86 10^−8 cm^2/s; in series [1] (setting [6]), 141.20 10^−8 cm^2/s; in series [1] (setting [7]) it was 129.97 10^−8 cm^2/s; in series [1] (setting [8]), 124.44 10^−8 cm^2/s. Moreover, the “Diffusion coefficient in NFC-hydrogels” value in series [1] (NFC hydrogel 11804-3 (3.2%)) is 152.62 10^−8 cm^2/s; in series [1] (NFC hydrogel 11814-1 (5.7%)), 131.41 10^−8 cm^2/s; in series [1] (NFC hydrogel 11814-3 (5.7%)), 148.23 10^−8 cm^2/s; in series [1] (NFC hydrogel 11815-3 (6.8%)), 141.86 10^−8 cm^2/s.
For the molecule `Cc1ncc([N+](=O)[O-])n1CCO` [Metronidazole], the “Charge at pH 7.0” value in series [2] (pH 7.0) is on record as “ø”. The “Charge of compounds at pH 7.4” value in series [2] (pH 7.4) is reported as “Metronidazole (ø)”. For the same molecule, the “Onset degradation temp Td, N2” value in series [3] is 160 °C. The “Solubility in aqueous media (intrinsic solubility)” value in series [4] was 10.5 (25° C.), mg/ml and 10.5 mg/ml. Further, the “Solubility in aqueous media” value in series [4] (pH 7) was 10.5 (pH 7) mg/ml. Further, the “Diffusion coefficients for model compounds in different NFC hydrogels” value in series [1] (3% NFC, no excipients) was 716.99 10^−8 cm^2/s; in series [1] (setting [5]), 657.41 10^−8 cm^2/s; in series [1] (6.5% NFC, no excipients) it was 617.51 10^−8 cm^2/s; in series [1] (setting [6]) it was 617.16 10^−8 cm^2/s; in series [1] (setting [7]), 699.10 10^−8 cm^2/s; in series [1] (setting [8]), 660.18 10^−8 cm^2/s. The “Diffusion coefficient in NFC-hydrogels” value in series [1] (NFC hydrogel 11804-3 (3.2%)) is 716.99 10^−8 cm^2/s; in series [1] (NFC hydrogel 11814-1 (5.7%)) it was 609.51 10^−8 cm^2/s; in series [1] (NFC hydrogel 11814-3 (5.7%)), 551.09 10^−8 cm^2/s; in series [1] (NFC hydrogel 11815-3 (6.8%)), 617.51 10^−8 cm^2/s.
In the case of `CC(C)(C)NCC(O)COc1cccc2c1CC(O)C(O)C2` (stereo not drawn) [Nadolol], the pKa/pI in series [2] was 9.28. In addition, the “Onset degradation temp Td, N2” value in series [3] was 196.2 °C. Also, the “Solubility in aqueous media (intrinsic solubility)” value in series [4] is on record as 8.3 (25° C.), mg/ml. In addition, the “Solubility in aqueous media” value in series [4] (pH 7) was 8.3 (pH 7) mg/ml. The “Diffusion coefficients for model compounds in different NFC hydrogels” value in series [1] (3% NFC, no excipients) was 286.24 10^−8 cm^2/s; in series [1] (setting [5]), 292.92 10^−8 cm^2/s; in series [1] (6.5% NFC, no excipients), 230.62 10^−8 cm^2/s; in series [1] (setting [6]), 245.04 10^−8 cm^2/s; in series [1] (setting [7]), 296.36 10^−8 cm^2/s; in series [1] (setting [8]), 267.21 10^−8 cm^2/s. For the same molecule, the “Diffusion coefficient in NFC-hydrogels” value in series [1] (NFC hydrogel 11804-3 (3.2%)) is reported as 286.24 10^−8 cm^2/s; in series [1] (NFC hydrogel 11814-1 (5.7%)), 273.21 10^−8 cm^2/s; in series [1] (NFC hydrogel 11814-3 (5.7%)) it was 287.50 10^−8 cm^2/s; in series [1] (NFC hydrogel 11815-3 (6.8%)) it was 230.62 10^−8 cm^2/s.
For the molecule `OC[C@H]1O[C@H](O[C@H]2O[C@H](CO)[C@@H](O)[C@H](O)[C@H]2O)[C@H](O)[C@@H](O)[C@@H]1O` [Trehalose, D-(+)-trehalose dihydrate], the “Onset degradation temp Td, N2” value in series [3] was 230 °C.
Take “Lysozyme: Lysozyme from hen egg white, 14.7 kDa model compound”: the “Solubility in aqueous media” value in series [4] (condition not given) is more than 10 mg/mL. Also, the “Diffusion coefficients for model compounds in different NFC hydrogels” value is 3.53 10^−8 cm^2/s in series [1] (3% NFC, no excipients) and 1.75 10^−8 cm^2/s in series [1] (6.5% NFC, no excipients). For the same molecule, the “Diffusion coefficient in NFC-hydrogels” value is recorded as 3.53 10^−8 cm^2/s in series [1] (NFC hydrogel 11804-3 (3.2%)), 1.79 10^−8 cm^2/s in series [1] (NFC hydrogel 11814-1 (5.7%)), 2.57 10^−8 cm^2/s in series [1] (NFC hydrogel 11814-3 (5.7%)) and 1.75 10^−8 cm^2/s in series [1] (NFC hydrogel 11815-3 (6.8%)).
Consider Polyethylene glycol 6000 [PEG 6000], for which the “Onset degradation temp Td, N2” value in series [3] was 257 °C.
